From ChEMBL document CHEMBL5149999, “The Alkaloids from Lophophora diffusa and Other "False Peyotes"” (J Nat Prod, 2021)

Legend:
[1] = biological target: Sigma non-opioid intracellular receptor 1 (Homo sapiens, UniProt Q99720); experiment: Binding affinity to sigma 1 receptor (unknown origin) assessed as dissociation constant by competitive binding assay
[2] = biological target: Sigma intracellular receptor 2 (Homo sapiens, UniProt Q5BJF2); experiment: Binding affinity to sigma 2 receptor (unknown origin) assessed as dissociation constant by competitive binding assay
[3] = Acute toxicity in iv dosed mouse assessed as lethal dose incubated for 72 hrs; assay type: organism-based; conditions: in vivo
[4] = Acute toxicity in ip dosed mouse assessed as lethal dose incubated for 24 hrs; assay type: organism-based; conditions: in vivo
[5] = Acute toxicity in po dosed mouse assessed as lethal dose incubated for 72 hrs; assay type: organism-based; conditions: in vivo
[6] = Drug tolerance in sc dosed dog; assay type: toxicity, organism-based, Canis lupus familiaris; conditions: in vivo
[7] = biological target: T1, Trace amine-associated receptor 1 (Homo sapiens, UniProt Q96RJ0); experiment: Agonist activity at human TAAR1 stably expressed in HEK293 cells incubated for 30 mins by cAMP assay; assay type: functional, cell-based
T1 sequence (Q96RJ0 whole entry): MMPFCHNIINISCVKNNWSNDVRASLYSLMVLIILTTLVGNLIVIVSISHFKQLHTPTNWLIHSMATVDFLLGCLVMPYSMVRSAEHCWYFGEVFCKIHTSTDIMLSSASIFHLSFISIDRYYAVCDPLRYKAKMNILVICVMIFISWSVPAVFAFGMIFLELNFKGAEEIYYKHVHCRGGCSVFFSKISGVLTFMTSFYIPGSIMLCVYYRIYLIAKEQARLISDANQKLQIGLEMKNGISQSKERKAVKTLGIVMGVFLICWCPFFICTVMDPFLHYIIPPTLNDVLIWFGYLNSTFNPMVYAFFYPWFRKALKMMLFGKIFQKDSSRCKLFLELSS

[8] = biological target: Trace amine-associated receptor 1 (Rattus norvegicus, UniProt Q923Y9); experiment: Agonist activity at rat TAAR1 stably expressed in HEK293 cells incubated for 30 mins by cAMP assay; assay type: functional, cell-based
[9] = biological target: Trace amine-associated receptor 1 (Mus musculus, UniProt Q923Y8); experiment: Agonist activity at mouse TAAR1 stably expressed in HEK293 cells incubated for 30 mins by cAMP assay; assay type: functional, cell-based
Trace amine-associated receptor 1 (Mus musculus, UniProt Q923Y8), sequence (Q923Y8 whole entry): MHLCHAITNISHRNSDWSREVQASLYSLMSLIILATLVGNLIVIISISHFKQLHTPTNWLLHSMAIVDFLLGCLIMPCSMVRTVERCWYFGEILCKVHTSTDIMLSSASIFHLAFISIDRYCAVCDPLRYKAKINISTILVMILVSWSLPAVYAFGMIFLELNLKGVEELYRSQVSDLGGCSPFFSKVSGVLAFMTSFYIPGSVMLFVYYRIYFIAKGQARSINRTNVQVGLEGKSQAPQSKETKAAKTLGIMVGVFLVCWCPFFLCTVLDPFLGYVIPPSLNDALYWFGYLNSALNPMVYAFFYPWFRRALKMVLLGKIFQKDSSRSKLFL

Trace amine-associated receptor 1 (Rattus norvegicus, UniProt Q923Y9), sequence (Q923Y9 whole entry): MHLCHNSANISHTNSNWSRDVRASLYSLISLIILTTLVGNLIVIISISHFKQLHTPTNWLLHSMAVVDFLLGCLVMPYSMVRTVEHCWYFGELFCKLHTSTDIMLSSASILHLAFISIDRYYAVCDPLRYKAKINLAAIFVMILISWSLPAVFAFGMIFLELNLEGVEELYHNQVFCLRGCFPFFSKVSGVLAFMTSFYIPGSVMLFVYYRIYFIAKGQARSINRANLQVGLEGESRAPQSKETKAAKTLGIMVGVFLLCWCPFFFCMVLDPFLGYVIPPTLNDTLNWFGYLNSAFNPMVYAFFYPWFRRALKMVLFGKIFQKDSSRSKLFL
Sigma non-opioid intracellular receptor 1, sequence (Q99720 whole entry): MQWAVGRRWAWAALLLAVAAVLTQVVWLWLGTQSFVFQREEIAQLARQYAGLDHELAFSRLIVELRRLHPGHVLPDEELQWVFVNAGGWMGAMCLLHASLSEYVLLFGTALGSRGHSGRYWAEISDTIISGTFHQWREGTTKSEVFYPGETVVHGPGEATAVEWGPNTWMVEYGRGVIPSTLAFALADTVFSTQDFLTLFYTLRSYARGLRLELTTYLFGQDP
Sigma intracellular receptor 2, sequence (Q5BJF2 whole entry): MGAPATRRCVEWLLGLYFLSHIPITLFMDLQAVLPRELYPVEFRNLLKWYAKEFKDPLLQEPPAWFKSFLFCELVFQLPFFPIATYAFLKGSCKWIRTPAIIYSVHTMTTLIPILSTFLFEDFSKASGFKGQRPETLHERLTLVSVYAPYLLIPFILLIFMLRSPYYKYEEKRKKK

## CNCCc1ccc(O)cc1
[1]
  Kd: 12400 nM
[2]
  Kd: 6600 nM

## COc1cc2c(c(O)c1OC)C(C)N(C)CC2 (centres undefined)
[3]
  LD50 at 72 h: 52.2 mg/kg
[4]
  LD50 at 24 h: 115 mg/kg
[5]
  LD50 at 72 h: 200 mg/kg
[6]
  Activity: 50 mg/kg

## NCCc1ccc(O)cc1 [TYRAMINE]
[7]
  EC50: 990 nM
[8]
  EC50: 30 nM
[9]
  EC50: 280 nM
